Measurements: patent US12240854B2, “TRAF 6 inhibitors” (Helmholtz Zentrum München - Deutsches Forschungszentrum für …, priority 2018, dated 2025)
Entries after “also recorded” stand apart in the source; their conditions may differ.

Legend:
U2OS cells = assay: Cell cycle assessment (propidium iodide), U2OS cells; assay type: cell-based; conditions: 24 hours and 72 hours
Experimental: (§1) For cell cycle staining, cells were seeded at 2×10^5 cells per sample and treated with compound or DMSO. After the indicated incubation time (24 or 72 hours), cells were fixed in 100% Ethanol and subsequently stained with the Propidium Iodide staining solution (0.1% Triton X-100; 20 μg/ml Propidium Iodide; 200 μg/ml RNAse A in PBS) for 40 min in the dark. The Propidium Iodide fluorescence was collected using the Attune Flow Cytometer (Thermo Fisher Scientific). Analysis was performed using the Single Cell analysis software FlowJo.

cIAP1 = target: T1, cIAP1 (Homo sapiens, UniProt Q13490); assay: In vitro ubiquitination assay, cIAP1 ubiquitin ligase kit; assay type: biochemical; conditions: K63 chain formation
T1 construct: purchased Boston Biochem
Experimental: (§2) For analysis of cIAP1, MDM2, TRIM63, RNF4, ITCH and E6AP mediated poly-ubiquitination, the respective ubiquitin ligase kit from Boston Biochem (K-102, K-260, K-200B, K-220, K-240 and K-270) was used. Here, reaction buffer, E1, E2 and E3 enzyme (and p53 substrate in case of MDM2) were mixed and pre-incubated with compound or DMSO for 5 minutes at room temperature before adding Mg^2+-ATP and mono-ubiquitin for reaction start. Ubiquitination was visualized by Western Blot analyses.

[1] = tested on: Diet-Induced-Obesity (DIO) mice; assay: Diet-Induced-Obesity (DIO) mouse study; assay type: in vivo; conditions: 7.4 mg/kg IP once daily
Experimental: Mice were fed a high-fat-diet until they reached a body weight of at least 40 g and developed […]. These mice were separated in control group and a group for C25-140 (compound 3) injection. Mice were treated every day with 14 μmol/kg (=7.4 mg/kg) C25-140 intraperitoneally for a period of 20 days. Thereby, C25-140 was dissolved in 2.9% DMSO, 1.5% Tween-80 and 1×PBS. Every day before injection, the body weight and food intake were measured. On day 20, mice were sacrificed two hours after compound injection and […] white adipose tissue from both body sites was removed, frozen in liquid nitrogen and stored at −80° C.

Jurkat T-cells = assay: Cell cycle assessment (propidium iodide), Jurkat T-cells; assay type: cell-based, human; conditions: 24 hours and 72 hours
Experimental: as §1

[2] = tested on: 87 primary molecular targets (kinases, non-kinase enzymes, nuclear receptors, GPCRs, transporters and ion channels); assay: SafetyScreen87 (Eurofins Cerep Panlabs); assay type: binding; conditions: 10 μM
Experimental: The SafetyScreen87, a total of 87 assays, was carried out at Eurofins Cerep Panlabs. 87 primary molecular targets including 13 enzyme assays (kinases and non-kinase enzymes) and 74 binding assays (nuclear receptors, GPCRs, transporters and ion channels) were performed at a compound concentration of 10 μM C25-140. Each of the 87 assay reactions was performed at the optimised condition that was historically available at Eurofins Cerep Panlabs. In parallel to C25-140, a reference compound for each of the 87 reactions was concurrently tested to guarantee optimal setting of the assays. In this study the reference compounds performed in the same range as historic Ki values.

[3] = tested on: p-IκBα (Ser32/36) in MEF cells; assay: ALPHASurefire p-IκBα / total IκBα in MEF cells; assay type: cell-based, mouse; conditions: IL-1β
Experimental: In order to detect protein levels of p-IκBα (Ser32/36) as well as total IκBa, 1×10^4 MEF cells were seeded in 96-well plates, treated with compound for 6 hours and stimulated with 1 ng/ml IL-1β for 7 minutes. The p-IκBα and total IκBα protein levels were analyzed using the ALPHASurefire kits (PerkinElmer) following the manufacturer's instruction. The general 2-plate protocol was conducted.

MDM2 = target: T2, MDM2 (Homo sapiens, UniProt Q00987); assay: In vitro ubiquitination assay, MDM2 ubiquitin ligase kit (p53 substrate); assay type: biochemical; conditions: K48 chain formation
T2 construct: purchased Boston Biochem
Experimental: as §2

[4] = tested on: 24 different Ubiquitin reaction cascades (E2, E3 and substrate combinations); assay: Ubiquitin Profiler (Eurofins), single point; assay type: biochemical; conditions: 30 μM, 24 reactions
Experimental: C25-140 was sent to Eurofins Pharma Discovery Services UK to perform a Single Point Ubiquitin Profiler testing of C25-140 effect at a concentration of 30 μM on 24 different Ubiquitin reaction cascades employing distinct combinations of E2, E3 and substrate. Each reaction was measured in duplicates. Cascade activity is expressed as a percentage of the mean cascade activity in the positive control samples. The positive control value is considered to be 100%, and all test samples are referred to this value.

[5] = tested on: Collagen-Induced Arthritis (CIA) Model in DBA1/J mice; assay: Collagen-Induced Arthritis (CIA) model; assay type: in vivo, mouse
Experimental: In order to test the potential of C25-140 to ameliorate RA symptoms, a Collagen-Induced Arthritis (CIA) Model in DBA1/J mice was performed by Washington Biotechnology, Inc. (Baltimore, USA). Each group of ten mice was subjected to a single subcutaneous injection of collagen/complete Freund's Adjuvant emulsion (0.05 ml/mouse; 100 μg collagen/CFA). After 20 days (day 21), mice were booster injected with collagen (0.05 ml/mouse; 100 μg/mouse collagen in Incomplete Freund's Adjuvant). On day 28, mice were scored for their Arthritic Index (AI) and 14 days intraperitoneally dosed twice daily with 6 mg/kg, 10 mg/kg and 14 mg/kg C25-140, respectively. Mice were scored of macroscopic signs of arthritis daily. Thereby, the following scoring index was applied to each individual paw: 0=no visible effects of arthritis; 1=edema and/or erythema of 1 digit; 2=edema and/or erythema of 2 digits; 3=edema and/or erythema of more than 2 digits; 4=severe arthritis of entire paw and digits. Single paw scores were added and recorded. On day 42, animals were euthanized, limbs were collected and histopathology was performed using Toluidine blue staining with scoring of several parameters.

T1 sequence (Q13490 whole entry): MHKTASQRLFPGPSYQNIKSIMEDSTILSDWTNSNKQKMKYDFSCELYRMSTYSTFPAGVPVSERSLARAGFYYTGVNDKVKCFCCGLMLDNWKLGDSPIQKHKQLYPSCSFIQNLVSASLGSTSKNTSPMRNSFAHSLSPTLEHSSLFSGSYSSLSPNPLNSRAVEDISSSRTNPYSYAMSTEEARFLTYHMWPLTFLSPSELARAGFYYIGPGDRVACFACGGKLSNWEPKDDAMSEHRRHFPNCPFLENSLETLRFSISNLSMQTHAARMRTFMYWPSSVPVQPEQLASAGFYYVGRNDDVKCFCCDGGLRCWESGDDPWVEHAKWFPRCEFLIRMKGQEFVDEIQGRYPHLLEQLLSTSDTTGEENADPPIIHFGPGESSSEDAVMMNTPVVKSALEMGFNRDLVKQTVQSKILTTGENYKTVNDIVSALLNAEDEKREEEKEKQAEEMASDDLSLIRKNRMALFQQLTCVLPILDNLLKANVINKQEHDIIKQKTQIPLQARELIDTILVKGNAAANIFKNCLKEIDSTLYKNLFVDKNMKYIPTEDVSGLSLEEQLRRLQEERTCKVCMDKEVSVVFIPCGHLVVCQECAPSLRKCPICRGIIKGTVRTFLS
T2 sequence (Q00987 whole entry): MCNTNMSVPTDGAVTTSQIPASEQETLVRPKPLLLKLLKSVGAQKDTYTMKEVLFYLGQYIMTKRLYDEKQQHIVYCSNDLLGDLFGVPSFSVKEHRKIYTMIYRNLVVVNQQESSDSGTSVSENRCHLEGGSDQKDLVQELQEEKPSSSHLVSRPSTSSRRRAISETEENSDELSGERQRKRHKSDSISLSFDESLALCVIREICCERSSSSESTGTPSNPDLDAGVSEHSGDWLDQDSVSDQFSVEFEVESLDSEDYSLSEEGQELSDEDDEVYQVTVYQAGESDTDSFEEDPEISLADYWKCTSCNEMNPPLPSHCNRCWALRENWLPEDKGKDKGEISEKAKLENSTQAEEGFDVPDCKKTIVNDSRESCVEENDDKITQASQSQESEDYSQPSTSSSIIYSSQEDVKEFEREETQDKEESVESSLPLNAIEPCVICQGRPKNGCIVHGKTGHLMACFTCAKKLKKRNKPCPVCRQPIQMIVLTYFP

Compound: Cc1nn(-c2ccc3nnc(C)n3n2)c(C)c1CCC(=O)N1CCC(Cc2ccccc2)CC1 [Example C25-140, 1-(4-Benzylpiperidin-1-yl)-3-(3,5-dimethyl-1-(3-methyl-[1,2,4]-triazolo-[4,3-b]-pyridazin-6-yl)-1H-pyrazol-4-yl)-propan-1-one]
- cell cycle progression (U2OS cells): no effects on cell cycle phases; also recorded: not impaired
- auto-ubiquitination of cIAP1 (cIAP1): indeed affected; also recorded: dose-dependently diminished
- food intake ([1]; 20 days): did not differ; also recorded: remains unaffected
- body weight gain ([1]; 20 days, high-fat-diet): reduces gain of weight; also recorded: hardly increased body weight; also recorded: milder body weight gain
- mRNA levels of IL-1β and VCAM in epidermal white adipose tissue ([1]; day 20): reduces IL-1β expression; also recorded: significantly reduced; also recorded: decreased
- cell cycle progression (Jurkat T-cells): no effects on cell cycle phases; also recorded: not impaired
- effect on / binding to the 87 SafetyScreen87 targets [2]: no significant binding; also recorded: did not markedly affect any of the 87 molecular targets
- activity in cell-based ALPHASurefire (NF-κB activation, p-IκBα) [3]: improved inhibitory activity; also recorded: more active
- p53 ubiquitination by MDM2 (MDM2): not influenced; also recorded: not affected
- Ubiquitin Profiler cascade activity [4]: None of these reactions was inhibited; also recorded: None of the reactions is considerably inhibited
- arthritic index (AI) ([5]; 6, 10 and 14 mg/kg IP twice daily, 14 days): dose-dependently reduced
- RA symptoms / disease outcome (in words) ([5]; CIA mouse model): ameliorates RA disease outcomes; also recorded: successfully counteracted clinical symptoms of RA and reversed the disease state; also recorded: eases symptoms
- histological score of the limbs (inflammation, pannus formation, cartilage damage, bone resorption) ([5]; day 42): dose-dependently improves RA symptoms; also recorded: attenuated
- arthritic index (AI) ([5]; doses of 10 mg/kg and 14 mg/kg IP twice daily): almost completely ameliorated the arthritic index to baseline levels
- body weight ([5]; throughout the study): did not show any signs of reduction; also recorded: do not show any signs of weight loss
